In patent US12060347B2 (BRISTOL-MYERS SQUIBB COMPANY, priority 2016, dated 2024):

Target: T1, human PAR4 (Homo sapiens, UniProt Q96RI0)
T1 construct: expressed in transfected cells; host or cells: HEK293 PAR4 Clone 1.2A (BMS Arctic ID 383940)
T1 sequence (Q96RI0 18-385): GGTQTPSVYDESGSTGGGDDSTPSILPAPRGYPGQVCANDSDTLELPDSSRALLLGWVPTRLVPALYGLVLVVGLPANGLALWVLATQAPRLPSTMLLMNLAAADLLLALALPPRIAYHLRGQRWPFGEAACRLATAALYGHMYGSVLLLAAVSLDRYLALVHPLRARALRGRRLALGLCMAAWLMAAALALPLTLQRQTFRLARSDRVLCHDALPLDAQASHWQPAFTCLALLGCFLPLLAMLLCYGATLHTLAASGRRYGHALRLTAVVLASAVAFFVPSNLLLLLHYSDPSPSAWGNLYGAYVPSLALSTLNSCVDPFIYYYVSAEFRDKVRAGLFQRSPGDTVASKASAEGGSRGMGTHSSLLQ
Test: PAR4 FLIPR assay: antagonism of agonist-peptide-induced calcium mobilization in PAR4-expressing HEK293 cells
Assay type: cell-based
Conditions: H-Ala-Phe(4-F)-[…]NH2-induced intracellular calcium mobilization, 11-point curves

| Structure (SMILES) | IC50 |
| --- | --- |
| COc1cnc2c(-c3nc4c(Cl)c(F)c(OCCO)cc4s3)cc(C)cc2n1 [Example 318, 2-((4-chloro-5-fluoro-2-(2-methoxy-7-methylquinoxalin-5-yl)benzo[d]thiazol-6-yl)oxy)ethanol] | 7.8 nM |
| [2H]C([2H])(O)c1ncc(NC(=O)O[C@H](C)[C@H](C)Oc2cc3sc(-c4cc(C)cc5nc(OC)cnc45)nc3cc2F)cn1 [Example 528, (2R,3S)-3-((5-fluoro-2-(2-methoxy-7-methylquinoxalin-5-yl)benzo[d]thiazol-6-yl)oxy)butan-2-yl (2-(hydroxymethyl)pyrimidin-5-yl)carbamate] | 5 nM |
| CCOc1cnc2c(-c3nc4c(C(O)C(C)(C)C)cc(OC)cc4s3)cc(C)cc2n1 (stereo not shown) [Example 817, 1-(2-(2-ethoxy-7-methylquinoxalin-5-yl)-6-methoxybenzo[d]thiazol-4-yl)-2,2-dimethylpropan-1-ol] | 3.6 nM |
| COc1cnc2c(-c3nc4cc(F)c(OC[C@@H](C)OC(=O)Nc5ccc(C(=O)NCC6(CO)COC6)nc5)cc4s3)cc(C)cc2n1 [Example 470, (R)-1-((5-fluoro-2-(2-methoxy-7-methylquinoxalin-5-yl)benzo[d]thiazol-6-yl)oxy)propan-2-yl (6-(((3-(hydroxymethyl)oxetan-3-yl)methyl)carbamoyl)pyridin-3-yl)carbamate] | 2.2 nM |
| COCc1cnc2c(-c3nc4c(C)cc(OCCNS(=O)(=O)c5ccc(F)cc5)cc4s3)cccc2n1 [Example 213, 4-fluoro-N-(2-((2-(2-(methoxymethyl)quinoxalin-5-yl)-4-methylbenzo[d]thiazol-6-yl)oxy)ethyl) benzenesulfonamide] | 5.8 nM |
| COc1cnc2c(-c3nc4c(Cl)c(F)c(OC)cc4s3)cc(Cl)cc2n1 [Example 215, 4-chloro-2-(7-chloro-2-methoxyquinoxalin-5-yl)-5-fluoro-6-methoxybenzo[d]thiazole] | 2.9 nM |
| COc1cnc2c(-c3nc4cc(F)c(OC[C@@H](C)OC(=O)Nc5ccc(NC(C)=O)nc5)cc4s3)cc(C)cc2n1 [Example 610, (R)-1-((5-fluoro-2-(2-methoxy-7-methylquinoxalin-5-yl)benzo[d]thiazol-6-yl)oxy)propan-2-yl (6-acetamidopyridin-3-yl)carbamate] | 4.3 nM |
| CCOc1cc2sc(-c3cc(C)cc4nc(OC)cnc34)nc2c(F)c1F [Example 315, 6-ethoxy-4,5-difluoro-2-(2-methoxy-7-methylquinoxalin-5-yl)benzo[d]thiazole] | 3.3 nM |
| COc1cnc2c(-c3nc4cc(F)c(O[C@@H](C)[C@@H](C)OC(=O)Nc5cncc(F)c5)nc4s3)cc(Cl)cc2c1 [Example 776, (2R,3S)-3-((2-(6-chloro-3-methoxyquinolin-8-yl)-6-fluorothiazolo[5,4-b]pyridin-5-yl)oxy)butan-2-yl (5-fluoropyridin-3-yl)carbamate] | 2.5 nM |
| COc1cc(CCO)c2nc(-c3cc(C)cc4nc(OC)cnc34)sc2c1 [Example 641, 2-(6-methoxy-2-(2-methoxy-7-methylquinoxalin-5-yl)benzo[d]thiazol-4-yl)ethanol] | 250 nM |
| COCc1cnc2c(-c3nc4c(C)cc(OCCNS(=O)(=O)c5ccc(F)cc5)cc4s3)cc(C(=O)OC)cc2n1 [Example 205, methyl 8-(6-(2-(4-fluorophenylsulfonamido)ethoxy)-4-methylbenzo[d]thiazol-2-yl)-3-(methoxymethyl)quinoxaline-6-carboxylate] | 51 nM |
| Cc1cc(-c2cc3ccccc3[nH]2)c2ncc(OC(F)F)nc2c1 [Example 5, 2-(difluoromethoxy)-5-(1H-indol-2-yl)-7-methylquinoxaline] | 880 nM |
| CCOc1cc(C(O)C(C)(C)C)c2nc(-c3cc(C)cc4nc(OC)cnc34)sc2c1 (stereo not shown) [Example 640, 1-(6-ethoxy-2-(2-methoxy-7-methylquinoxalin-5-yl)benzo[d]thiazol-4-yl)-2,2-dimethylpropan-1-ol] | 8 nM |
| COc1cnc2c(-c3nc4c(s3)C(OC)CCC4)cc(C)cc2n1 (stereo not shown) [Example 139, 7-methoxy-2-(2-methoxy-7-methylquinoxalin-5-yl)-4,5,6,7-tetrahydrobenzo[d]thiazole] | 3.9 nM |
| COc1ccc2nc(-c3cc(C)cc4nc(OC(F)F)cnc34)sc2n1 [Example 23, 2-(2-(difluoromethoxy)-7-methylquinoxalin-5-yl)-5-methoxythiazolo[5,4-b]pyridine] | 5.3 nM |
| COc1cccc2oc(-c3cc(C)cc4nc(OC(F)F)cnc34)cc12 [Example 42, 2-(difluoromethoxy)-5-(4-methoxybenzofuran-2-yl)-7-methylquinoxaline] | 5.2 nM |
| Cc1cc(-c2nc3c(C)cc(OCCNS(=O)(=O)c4ccc(Cl)cc4)cc3s2)c2ncc(OC(F)F)nc2c1 [Example 86, 4-chloro N-(2-(2-(2-(difluoromethoxy)-7-methylquinoxalin-5-yl)-4-methylbenzo[d]thiazol-6-yloxy)ethyl)benzenesulfonamide] | 7.2 nM |
| COc1cnc2c(-c3nc4cc(F)c(OC[C@@H](C)OC(=O)Nc5cnc(OC)nc5)nc4s3)cc(C)cc2n1 [Example 679, (R)-1-((6-fluoro-2-(2-methoxy-7-methylquinoxalin-5-yl)thiazolo[5,4-b]pyridin-5-yl)oxy) propan-2-yl (2-methoxypyrimidin-5-yl)carbamate] | 2.5 nM |
| COc1cc(C(O)c2nccs2)c2nc(-c3cc(C)cc4nc(OC)cnc34)sc2c1 (stereo not shown) [Example 673, (6-methoxy-2-(2-methoxy-7-methylquinoxalin-5-yl)benzo[d]thiazol-4-yl)(thiazol-2-yl)methanol] | 39 nM |

These reach a lower IC50. Values come first.

| IC50 | Structure (SMILES) |
| --- | --- |
| 2.1 nM | COc1cnc2c(-c3nc4cc(F)c(OC[C@@H](C)OC(=O)Nc5cncc(CO)c5)cc4s3)cc(C)cc2n1 [Example 611, (R)-1-((5-fluoro-2-(2-methoxy-7-methylquinoxalin-5-yl)benzo[d]thiazol-6-yl)oxy)propan-2-yl (5-(hydroxymethyl)pyridin-3-yl)carbamate] |
| 1.7 nM | COc1cnc2c(-c3nc4c(Cl)c(F)c(OCCOC(=O)Nc5ccc6[nH]c(=O)oc6c5)cc4s3)cc(C)cc2n1 [Example 333, 2((4-chloro-5-fluoro-2-(2-methoxy-7-methylquinoxalin-5-yl)benzo[d]thiazol-6-yl)oxy)ethyl (2-oxo-2,3-dihydrobenzo[d]oxazol-6-yl)carbamate] |
| 1.6 nM | COc1cnc2c(-c3nc4cc(F)c(O[C@@H](C)[C@@H](C)OC(=O)Nc5ccc(C(N)=O)nc5)cc4s3)cc(Cl)cc2n1 [Example 833, (2R,3S)-3-((2-(7-chloro-2-methoxyquinoxalin-5-yl)-5-fluorobenzo[d]thiazol-6-yl)oxy) butan-2-yl (6-carbamoylpyridin-3-yl)carbamate] |
| 1.6 nM | COc1cnc2c(-c3nc4c(Cl)c(F)c(OC[C@@H](C)OC(=O)Nc5ccc(CCO)nc5)cc4s3)cc(C)cc2n1 [Example 542, (R)-1-((4-chloro-5-fluoro-2-(2-methoxy-7-methylquinoxalin-5-yl)benzo[d]thiazol-6-yl)oxy)propan-2-yl (6-(2-hydroxyethyl)pyridin-3-yl)carbamate] |
| 1.4 nM | COCc1cnc2c(-c3nc4c(C)cc(OCCNS(=O)(=O)c5ccc(F)cc5)cc4s3)cc(C)cc2n1 [Example 29, 4-fluoro-N-(2-((2-(2-(methoxymethyl)-7-methylquinoxalin-5-yl)-4-methylbenzo[d]thiazol-6-yl)oxy)ethyl)benzenesulfonamide] |
| 1.2 nM | COc1cc(C(O)C2CC2)c2nc(-c3cc(C)cc4nc(OC)cnc34)sc2c1 (stereo not shown) [Example 160, Cyclopropyl(6-methoxy-2-(2-methoxy-7-methylquinoxalin-5-yl)benzo[d]thiazol-4-yl) methanol] |
| 1 nM | COc1cnc2c(-c3nc4cc(F)c(O[C@@H](C)[C@@H](C)OC(=O)Nc5ccnc(O[C@H](C)CO)c5)cc4s3)cc(C)cc2n1 [Example 549, (2R,3S)-3-((5-fluoro-2-(2-methoxy-7-methylquinoxalin-5-yl)benzo[d]thiazol-6-yl)oxy)butan-2-yl (2-(((R)-1-hydroxypropan-2-yl)oxy)pyridin-4-yl)carbamate] |
| 0.9 nM | COCc1cnc2c(-c3nc4c(Cl)cc(OCCNS(=O)(=O)c5cccc(F)c5)cc4s3)cc(C)cc2n1 [Example 102, N-(2-(4-chloro-2-(2-(methoxymethyl)-7-methylquinoxalin-5-yl)benzo[d]thiazol-6-yloxy)ethyl)-3-fluorobenzenesulfonamide] |
| 0.8 nM | COCc1cnc2c(-c3nc4c(Cl)c(F)c(OCC(=O)OC)cc4s3)cc(C)cc2n1 [Example 292, methyl 2-((4-chloro-5-fluoro-2-(2-(methoxymethyl)-7-methylquinoxalin-5-yl)benzo[d]thiazol-6-yl)oxy)acetate] |
| 0.7 nM | COCc1cnc2c(-c3nc4c(C(O)c5ccccc5)cc(OC)cc4s3)cc(C)cc2n1 (stereo not shown) [Example 161, (6-methoxy-2-(2-(methoxymethyl)-7-methylquinoxalin-5-yl)benzo[d]thiazol-4-yl) (phenyl)methanol] |
| 0.7 nM | COCc1cnc2c(-c3nc4c(C)cc(OC)cc4s3)cc(F)cc2n1 [Example 206, 2-(7-fluoro-2-(methoxymethyl)quinoxalin-5-yl)-6-methoxy-4-methylbenzo[d]thiazole] |
| 0.6 nM | COc1cnc2c(-c3nc4cc(F)c(O[C@@H](C)[C@@H](C)OC(=O)Nc5ccc(C#N)nc5)cc4s3)cc(Cl)cc2n1 [Example 829, (2R,3S)-3-((2-(7-chloro-2-methoxyquinoxalin-5-yl)-5-fluorobenzo[d]thiazol-6-yl)oxy)butan-2-yl (6-cyanopyridin-3-yl)carbamate] |
